This note sets out measurements from patent US20120123760A1, “METHOD FOR DESIGNING AN APTAMER” (Technology Innovations, LLC, priority 2010, published 2012).

Assay [1] can be described thus: Fluorescence assay of 6FAM-labelled aptamer bound to DPPC+DPPS liposomes. The class given is binding. From the text:
(§1) Two of the top-ranked 6-mer DNA designed aptamers targeting PS were chosen for experimental investigations. Both sequences containing fluorescence tags (6FAM is on the 3′ end of the DNA sequence) were obtained from Integrated DNA Technologies, Commercial Park, Coralville Iowa, USA. 96 well assay plates for fluorescence assays using FLUOstar OPTIMA (BMG Labtech GmbH, Offenburg, Germany) were from Corning Inc., New York, USA. Two lipids, 1,2-dipalmitoyl-sn-glycero-3-phosphatidylcholine (DPPC) and 1,2-dipalmitoyl-sn-glycero-3-phospho-L-serine (sodium salt) (DPPS) in chloroform stock and cholesterol (powder) were obtained from Avanti Polar Lipids (Alabaster, Ala., USA). They were used without further purification.
(§2) Two liposomes were prepared for studying binding affinity and specificity. One uses DPPC and DPPS at a 10:1 DPPC/DPPS molar ratio and the second one uses DPPC alone. […] 100 μL from this final solution was loaded into each of the 96 wells on the fluorescence plate to measure fluorescence of the samples. […]
(§3) Both sequences containing fluorescence tags (6FAM is on the 3′ end of the DNA sequence) were obtained from Integrated DNA Technologies, Commercial Park, Coralville Iowa, USA. 96 well assay plates for fluorescence assays using FLUOstar OPTIMA (BMG Labtech GmbH, Offenburg, Germany) were from Corning Inc., New York, USA. […]

The nature of assay [2]: Fluorescence assay of 6FAM-labelled aptamer bound to DPPC alone liposomes (control without PS). The class given is binding. The following applies: FIG. 8 right panel.
Description: as §1, §2, §3

Turning to AAAGAC [PS-aptamer II], the “binding affinity (inferred from fluorescence)” value in assay [1] is reported as “relatively better or stronger binding affinity than PS-aptamer I”. Besides, the “fluorescence level from bound DNA aptamer” value in assay [1] (FIG. 8 left panel, aptamer beyond 0.165 nmol) is reported as “higher fluorescence level than PS-aptamer I”; in assay [2] it was “binds either poorly or not at all”.
